Data taken from US11066386B2, “CGRP receptor antagonists” (Eli Lilly and Company, priority 2017, dated 2021).
Like-named read-outs stand apart in the source and are kept apart here.

Experiments:
[1] = target: T1, hCGRP (human calcitonin gene-related peptide) receptor (Homo sapiens, UniProt O60894+Q16602); assay: Inhibition of cAMP production by CGRP receptor antagonists (HTRF) in SK-N-MC cells; assay type: cell-based; conditions: human CGRP 0.8 nM as agonist, mean ±SEM, n=16, read-out: Kb measured at human CGRP
T1 construct: Cultured SK-N-MC neuroblastoma cells that endogenously express the hCGRP receptor (ATCC); host or cells: SK-N-MC neuroblastoma cells
From the text: Inhibition of cAMP Production by CGRP Receptor Antagonists
The hCGRP (human calcitonin gene-related peptide) receptor is functionally coupled to the Gas proteins. Stimulation of hCGRP results in an increased synthesis of intracellular cAMP and can be blocked by the addition of receptor antagonists. Receptor activity is thus a reflection of the amount of cAMP present within cells which can be detected using standard in vitro technology. […]
Data Analysis: The amount of intracellular cAMP is quantitated using HTRF technology (Cisbio) as per vendor instructions. […] The HTRF signal is immediately detected using an ENVISION® plate reader (Perkin-Elmer) to calculate the ratio of fluorescence at […]. […] Relative EC50 values are calculated from the top-bottom range of the concentration response curve using a four-parameter logistic curve fitting program (ACTIVITYBASE® v5.3.1.22 or GENEDATA SCREENER® v12.0.4), and Kb values are estimated as agonist-corrected IC50 values using the equation: Kb=(IC50)[1+([Agonist]/EC50)]. […]

[2] = target: T2, ABCB1, Human P-Glycoprotein (Pgp) (Homo sapiens, UniProt P08183); assay: In vitro determination of efflux by Pgp, bi-directional transport across MDCKII cells; assay type: in vitro ADME; conditions: MDCKII cells expressing human ABCB1, 5 μM substrate, 60 min
T2 construct: host or cells: MDCKII cells
Method: In Vitro Determination of Efflux by ABCB1, Human P-Glycoprotein (Pgp)
Cell Culture: MDCKII cells stably expressing human wild-type ABCB1 (Pgp) are obtained from the Netherlands Cancer Institute (Amsterdam, The Netherlands). MDCK cells are maintained as described previously (Desai et al., Mol Pharm 10:1249-1261, 2013).
Bi-directional transport across MDCK cells: The assay is essentially conducted as described previously (Desai et al., Mol Pharm 10:1249-1261, 2013). Transport is measured in both directions across uninhibited and inhibited cell monolayers using a substrate concentration of 5 μM diluted from a 10 mM DMSO stock solution (final DMSO concentration of 0.05%) and a single 60-min time interval. […] The apparent permeability coefficients (Papp) are estimated as the slope of the mass transported per 60 min relative to the total recovered mass. The basal-to-apical (B-A)/apical-to-basal (A-B) Papp ratios are calculated in the absence or presence of inhibitor in each cell line for net efflux ratio (NER).

[3] = Rat plasma and brain homogenate protein binding by equilibrium dialysis; assay type: in vitro ADME
Method: Determination of plasma and brain protein binding: Rat plasma and brain homogenate protein in vitro binding is determined using equilibrium dialysis, as described elsewhere [Zamek-Gliszczynski et al., J Pharm Sci, 101:1932-1940, 2012]. The results are reported as fraction unbound in plasma (fu,plasma) and brain (fu,brain), which are then utilized to calculate Kp,uu,brain, as described in Table 2. Rat fu,plasma and fu,brain of the compound of Example 1 are determined to be 0.277 and 0.126, respectively.

[4] = In vivo determination of unbound brain-to-plasma partition coefficient (Kp,uu,brain) in rats; conditions: 10 mg/kg oral; for concentration at 0.5 h / concentration at 2 h: male, Sprague-Dawley, oral, 10 mg/kg
Method: In Vivo Determination of Unbound Brain-to-Plasma Partition Coefficient (Kp,uu,brain) in Rats
Unbound brain-to-plasma partition coefficient (Kp,uu,brain) is one of the key pharmacokinetic parameter for evaluating a compound's ability to cross the blood-brain barrier (BBB) (Hammarlund-Udenaes, M.; Friden, M.; Syvanen, S.; Gupta, A. On the Rate and Extent of Drug Delivery to the Brain. Pharm. Res. 2008, 25 (8), 1737-1750).
Study populations: Animal studies are performed under protocols approved by the Covance Institutional Animal Care and Use Committee. Male Sprague-Dawley rats weighing 250-350 g are obtained from Harlan Sprague Dawley Inc. (Indianapolis, Ind.). Animals have access to food and water ad libitum before and during the study.
Dose administration: Animals each receive 10 mg/kg of the CGRP receptor antagonist compound of Example 1, administered orally in 10 ml/kg of hydroxyethylcellulose 1% w/v/polysorbate 80 0.25% v/v/Antifoam 1510-US 0.05% v/v/in purified water (probe sonicated).
Pharmacokinetic sampling: Three animals per time point are used. The blood (by cardiac puncture) and brain samples are collected at 0.5 and 2 h post dose. The blood samples are treated with K3-EDTA anticoagulant, and plasma is obtained by centrifugation at 1600 g for 10 minutes. The brain samples are weighed and homogenized, without perfusion. All samples are stored at −70° C. until analysis by LC-MS/MS to determine the concentration of the compound of Example 1 in plasma and brain at each time point.
Kp,uu,brain is calculated for each time point from the expression below where individual components are derived from a combination of in vitro and in vivo measurements carried out as described above:
[formula] where Ctotal,brain, Cu,brain, Ctotal,plasma and Cu,plasma are total and unbound brain and plasma concentrations, and fu,brain and fu,plasma are fractions unbound in brain and plasma, respectively.

T2 sequence (P08183 whole entry): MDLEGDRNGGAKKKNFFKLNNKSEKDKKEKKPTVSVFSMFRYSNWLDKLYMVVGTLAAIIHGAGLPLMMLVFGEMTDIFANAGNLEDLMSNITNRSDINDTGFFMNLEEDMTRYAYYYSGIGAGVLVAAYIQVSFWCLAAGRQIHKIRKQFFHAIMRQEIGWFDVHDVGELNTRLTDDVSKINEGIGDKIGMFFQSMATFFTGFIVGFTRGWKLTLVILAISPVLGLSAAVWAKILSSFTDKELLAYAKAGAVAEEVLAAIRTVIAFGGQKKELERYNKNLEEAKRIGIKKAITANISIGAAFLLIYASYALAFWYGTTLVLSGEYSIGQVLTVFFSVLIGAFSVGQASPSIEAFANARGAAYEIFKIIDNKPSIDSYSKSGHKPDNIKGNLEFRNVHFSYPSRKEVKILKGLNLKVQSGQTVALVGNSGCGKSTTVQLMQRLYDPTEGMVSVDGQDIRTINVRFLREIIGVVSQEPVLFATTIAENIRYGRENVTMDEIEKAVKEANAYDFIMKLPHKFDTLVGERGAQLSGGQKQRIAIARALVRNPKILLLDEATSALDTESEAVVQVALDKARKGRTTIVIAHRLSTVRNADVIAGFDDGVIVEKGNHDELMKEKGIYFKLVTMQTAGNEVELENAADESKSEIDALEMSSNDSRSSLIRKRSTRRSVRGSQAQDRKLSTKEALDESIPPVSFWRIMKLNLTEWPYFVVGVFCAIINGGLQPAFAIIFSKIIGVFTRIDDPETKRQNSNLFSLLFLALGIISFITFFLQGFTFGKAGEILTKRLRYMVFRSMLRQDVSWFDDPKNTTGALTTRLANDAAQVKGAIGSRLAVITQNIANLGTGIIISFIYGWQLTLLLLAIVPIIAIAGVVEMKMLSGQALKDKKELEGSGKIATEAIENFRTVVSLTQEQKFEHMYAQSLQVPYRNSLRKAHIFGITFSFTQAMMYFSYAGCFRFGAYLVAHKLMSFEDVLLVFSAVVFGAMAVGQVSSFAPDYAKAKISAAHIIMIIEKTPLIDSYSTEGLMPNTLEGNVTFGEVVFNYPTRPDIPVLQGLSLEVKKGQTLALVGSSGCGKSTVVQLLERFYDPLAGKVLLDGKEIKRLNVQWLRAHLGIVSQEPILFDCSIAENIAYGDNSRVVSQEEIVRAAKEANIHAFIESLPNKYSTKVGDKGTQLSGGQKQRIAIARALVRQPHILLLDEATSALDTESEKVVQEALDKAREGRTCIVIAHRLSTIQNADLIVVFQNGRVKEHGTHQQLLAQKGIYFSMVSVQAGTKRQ
T1 sequence (Q16602 23-461): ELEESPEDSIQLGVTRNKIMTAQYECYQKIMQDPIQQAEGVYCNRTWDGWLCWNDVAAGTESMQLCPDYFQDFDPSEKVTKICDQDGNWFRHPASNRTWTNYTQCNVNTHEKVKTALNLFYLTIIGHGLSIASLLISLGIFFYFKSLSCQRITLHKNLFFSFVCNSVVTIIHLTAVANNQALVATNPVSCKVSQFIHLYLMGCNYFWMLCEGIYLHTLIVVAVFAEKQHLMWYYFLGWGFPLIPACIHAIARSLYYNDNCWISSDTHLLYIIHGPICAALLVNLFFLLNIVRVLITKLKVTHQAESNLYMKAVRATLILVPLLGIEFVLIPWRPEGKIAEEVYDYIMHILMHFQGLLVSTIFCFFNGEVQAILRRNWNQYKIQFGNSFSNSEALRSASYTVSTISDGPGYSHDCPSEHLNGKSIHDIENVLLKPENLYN
T1 sequence (O60894 27-148): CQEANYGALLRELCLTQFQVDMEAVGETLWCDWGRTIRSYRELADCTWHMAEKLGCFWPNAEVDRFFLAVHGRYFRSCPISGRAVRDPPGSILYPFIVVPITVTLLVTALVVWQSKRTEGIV

Kb [1]: 0.31 ± 0.21 nM | net efflux ratio (NER) for efflux by Pgp [2]: 4.1 | fraction unbound in brain (fu,brain) ([3]; rat brain homogenate): 0.126 | fraction unbound ([3]; rat plasma, read-out: fraction unbound in plasma (fu,plasma)): 0.277 | Unbound brain conc. (Cu,brain) ([4]; male Sprague-Dawley rats, 0.5 hr, using rat fu,brain 0.126, mean +/- SD): 46 ± 9 nM | Unbound brain conc. (Cu,brain) ([4]; male Sprague-Dawley rats, 2.0 hr, using rat fu,brain 0.126, mean +/- SD): 51 ± 10 nM | concentration at 0.5 h ([4]; rat, brain, 0.5 hr, mean +/- SD, read-out: Total brain conc. (Ctotal,brain)): 365 ± 67 nM | concentration at 0.5 h ([4]; rat, brain, 0.5 hr, using rat fu,brain 0.126, mean +/- SD, read-out: Unbound brain conc. (Cu,brain)): 46 ± 9 nM | concentration at 2 h ([4]; rat, brain, 2.0 hr, mean +/- SD, read-out: Total brain conc. (Ctotal,brain)): 405 ± 83 nM | concentration at 2 h ([4]; rat, brain, 2.0 hr, using rat fu,brain 0.126, mean +/- SD, read-out: Unbound brain conc. (Cu,brain)): 51 ± 10 nM | concentration at 0.5 h ([4]; rat, plasma, 0.5 hr, mean +/- SD, read-out: Total plasma conc. (Ctotal,plasma)): 497 ± 69 nM | concentration at 0.5 h ([4]; rat, plasma, 0.5 hr, using rat fu,plasma 0.277, mean +/- SD, read-out: Unbound plasma conc. (Cu,plasma)): 138 ± 19 nM | concentration at 2 h ([4]; rat, plasma, 2.0 hr, mean +/- SD, read-out: Total plasma conc. (Ctotal,plasma)): 531 ± 129 nM | concentration at 2 h ([4]; rat, plasma, 2.0 hr, using rat fu,plasma 0.277, mean +/- SD, read-out: Unbound plasma conc. (Cu,plasma)): 147 ± 36 nM | Kp uu at 0.5 h ([4]; rat, brain/plasma, male Sprague-Dawley rats, 0.5 hr, mean +/- SD): 0.34 ± 0.05 | Kp uu at 2 h ([4]; rat, brain/plasma, male Sprague-Dawley rats, 2.0 hr, mean +/- SD): 0.35 ± 0.01
Compound: Cc1cc(OCCc2ccc([C@@H](C)[C@]3(C)CC(=O)NC3=O)cc2)cc(C)n1 [Example 1, (3S)-3-[(1R)-1-[4-[2-[(2,6-dimethyl-4-pyridyl)oxy]ethyl]phenyl]ethyl]-3-methyl-pyrrolidine-2,5-dione]
